From ChEMBL document CHEMBL5257032, “Therapeutic potential of coumarins as antiviral agents” (Eur J Med Chem, 2016)
pEC50, pIC50, pKi: −log10 of the molar value. In brackets after ≈: the same amount, converted by molar mass. Several values for one entry are separate records, joined by “and”; a condition that tells them apart may be missing. Equal values may be shown once.

Target: not listed separately
Test: Binding affinity to HIV protease assessed as inhibition constant
Design: species or system Human immunodeficiency virus
Details: not given

SMILES	pKi
CCC(c1cccc(NC(=O)CCn2ccc3ccccc32)c1)c1c(O)c2ccccc2oc1=O (stereo unspecified)	6.96
CCC(c1cccc(NC(=O)[C@@H]2CCCN2C(=O)OC(C)(C)C)c1)c1c(O)c2ccccc2oc1=O (stereo partly specified)	5.44
CC(C)(C)OC(=O)NC(Cc1c[nH]cn1)C(=O)Nc1cccc(C(c2c(O)c3c(oc2=O)CCCCCC3)C2CC2)c1 (stereo unspecified)	8.52
CCNC(=O)Nc1cccc(C(c2c(O)c3c(oc2=O)CCCCCC3)C2CC2)c1 (stereo unspecified)	7.14
O=c1oc2c(c(O)c1C(c1ccccc1)C1CC1)CCCCCC2 (stereo unspecified)	7.82
CCC(c1cccc(NC(=O)[C@H](C)NC(=O)OC(C)(C)C)c1)c1c(O)c2ccccc2oc1=O (stereo partly specified)	6.77
CCC(c1ccccc1)c1c(O)c2c(oc1=O)CCC2 (stereo unspecified)	6.15
CCCC(=O)Nc1cccc(C(c2c(O)c3c(oc2=O)CCCCCC3)C2CC2)c1 (stereo unspecified)	7.62
CC(C)(C)OC(=O)NCCNc1cccc(C(c2c(O)c3c(oc2=O)CCCCCC3)C2CC2)c1 (stereo unspecified)	9.22 and 8.40
CCC(c1cccc(NC(=O)CCNC(=O)OC(C)(C)C)c1)c1c(O)c2ccccc2oc1=O (stereo unspecified)	6.55
CCC(c1cccc(NC(=O)CNC(=O)OC(C)(C)C)c1)c1c(O)c2ccccc2oc1=O (stereo unspecified)	6.80
CCC(c1ccccc1)c1c(O)c2ccccc2oc1=O (stereo unspecified) [PHENPROCOUMON]	6.00
CCC(c1cccc(NC(=O)CCCNC(=O)OC(C)(C)C)c1)c1c(O)c2ccccc2oc1=O (stereo unspecified)	5.80

Test system: Human immunodeficiency virus
Test: Antiviral activity against HIV
Assay type: functional, organism-based
Details: Human immunodeficiency virus 1

SMILES	pIC50
COc1ccc2c(O)c(-c3ccccc3)c(=O)oc2c1	4.62
CC(C)(C)OC(=O)NCCNc1cccc(C(c2c(O)c3c(oc2=O)CCCCCC3)C2CC2)c1 (stereo unspecified)	6.00
CSc1ccc(-c2cc3ccccc3oc2=O)cc1	4.74

Same assay, conditions: Human immunodeficiency virus 1; read-out: ED50 (the source's name)

SMILES	pEC50
CCC(c1ccccc1)c1c(O)c2ccccc2oc1=O (stereo unspecified) [PHENPROCOUMON]	4.00

Target: T1, Human immunodeficiency virus type 1 protease (Human immunodeficiency virus 1, UniProt Q72874)
Test: Binding affinity to HIV-1 protease assessed as inhibition constant
Details: not given

SMILES	pKi
CCC(c1cccc(NS(=O)(=O)c2ccc(C#N)cn2)c1)c1c(O)c2c(oc1=O)CCCC2 (stereo unspecified)	10.30
CCC(Cc1ccccc1)c1cc(O)c(C(c2cccc(N[C@@H](C)C(=O)OC(C)(C)C)c2)C2CC2)c(=O)o1 (stereo partly specified)	7.82

Test system: Human immunodeficiency virus 1
Test: Antiviral activity against HIV-1
Assay type: functional, organism-based
Details: not given

SMILES	pIC50	pEC50
CCC(Cc1ccccc1)c1cc(O)c(C(CC)c2ccccc2)c(=O)o1 (stereo unspecified)	5.52	
Cc1cc(=O)oc2c1ccc1oc(C(=O)c3ccccc3)c(-c3ccccc3)c12		8.89

Test system: not listed separately
Test: Inhibition of HIV protease
Design: species or system Human immunodeficiency virus
Details: not given

SMILES	pIC50
O=c1oc2c(c(O)c1C(c1ccccc1)C1CC1)CCCCCC2 (stereo unspecified)	4.24
CC(=O)CC(c1ccccc1)c1c(O)c2ccccc2oc1=O (stereo unspecified) [WARFARIN]	4.52

Test system: Human immunodeficiency virus 1
Test: Antiviral activity against HIV-1 infected in human H9 cells
Assay type: functional, organism-based
Details: Human immunodeficiency virus 1, H9; read-out: EC50

SMILES	pEC50
CC1(C)C=Cc2c(ccc3ccc(=O)oc23)O1 [SESALIN]	5.46
C/C=C(\C)O[C@@H]1c2c(ccc3ccc(=O)oc23)OC(C)(C)[C@@H]1OC(C)=O	5.34
CC1(C)Oc2ccc3ccc(=O)oc3c2[C@@H](OC(=O)[C@@]23CC[C@](C)(C(=O)O2)C3(C)C)[C@H]1OC(=O)C12CCC(C)(C(=O)O1)C2(C)C	9.59
Cc1c(CO)c(=O)oc2c3c(ccc12)OC(C)(C)[C@H](OC(=O)C12CCC(C)(C(=O)O1)C2(C)C)[C@@H]3OC(=O)[C@@]12CC[C@](C)(C(=O)O1)C2(C)C	8.40
Cc1cc(=O)oc2c3c(ccc12)OC(C)(C)[C@H](OC(=O)C12CCC(C)(C(=O)O1)C2(C)C)[C@@H]3OC(=O)[C@@]12CC[C@](C)(C(=O)O1)C2(C)C	11.74
CC(=O)O[C@@H]1C(OCC(C)C)c2c(ccc3ccc(=O)oc23)OC1(C)C (single isomer, unassigned)	5.65

Same assay, conditions: Human immunodeficiency virus 1, H9; read-out: ED50 (the source's name)

SMILES	pEC50
CCC(c1cccc(NS(=O)(=O)c2ccc(C#N)cn2)c1)c1c(O)c2c(oc1=O)CCCC2 (stereo unspecified)	6.02

Target: Human immunodeficiency virus type 1 protease (Human immunodeficiency virus 1) (UniProt Q72874)
Test: (§1) Inhibition of HIV-1 protease
Details: not given

SMILES	ID50 [nM]
O=c1oc2ccccc2c(O)c1Sc1c(O)c2ccccc2oc1=O	21000
CC(C)c1cccc(C(C)C)c1NC(=O)C(=O)CC(=O)CC(c1ccccc1)c1c(O)c2ccccc2oc1=O (stereo unspecified)	31000
CCCCCCc1cc2c(O)c(C(c3ccccc3)c3c(O)c4cc(CCCCCC)c(O)cc4oc3=O)c(=O)oc2cc1O	320
O=c1oc2ccccc2c(O)c1C(c1ccc(C(c2c(O)c3ccccc3oc2=O)c2c(O)c3ccccc3oc2=O)cc1)c1c(O)c2ccccc2oc1=O	1700
O=c1oc2ccccc2c(O)c1C(c1ccc2c(c1)OCO2)c1c(O)c2ccccc2oc1=O	30000

Target: T1, Human immunodeficiency virus type 1 protease
Test: as §1
Details: not given

SMILES	pIC50	pEC50
O=c1oc(-c2ccccc2)cc(O)c1C(SC1CCCC1)C1CCCC1 (stereo unspecified)	6.65	
O=C(O)CCCCC1(c2ccccc2)CC(O)=C(SCCc2ccccc2)C(=O)O1 (stereo unspecified)	5.30	
O=c1oc2cc(O)ccc2c(O)c1-c1ccc(O)cc1	5.70	
O=c1oc(-c2ccccc2)cc(O)c1Sc1ccccc1	5.52	
Cc1cc(SC2=C(O)C[C@@](CCc3ccc(N)cc3)(C(C)C)OC2=O)c(C(C)(C)C)cc1CO		6.70
CC(=O)CC(c1ccccc1)c1c(O)c2ccc(C)c(C)c2oc1=O (stereo unspecified)	5.72	
O=c1oc2ccccc2c(O)c1C(c1ccc(C(c2c(O)c3ccccc3oc2=O)c2c(O)c3ccccc3oc2=O)cc1)c1c(O)c2ccccc2oc1=O	4.94	
O=c1oc2cc(O)ccc2c(O)c1C(c1ccc2ccccc2c1)c1c(O)c2ccc(O)cc2oc1=O	5.38	
O=C(O)COc1ccc(-c2cc(O)c(SCCc3ccccc3)c(=O)o2)cc1	6.80	
O=c1oc2ccccc2c(O)c1C(c1ccccc1)c1c(O)c2ccccc2oc1=O	4.37	
CCCC1(CCC)CC(O)=C(C(c2ccccc2)C2CC2)C(=O)O1 (stereo unspecified)	5.30	

Test system: not listed separately
Test: Therapeutic index, ratio of IC50 for cytotoxicity against human H9 cells to EC50 for antiviral activity against HIV-1 infected in H9 cells
Assay type: toxicity, cell-based
Details: read-out: Ratio IC50/EC50

SMILES	selectivity ratio
CC1(C)Oc2ccc3ccc(=O)oc3c2[C@@H](OC(=O)[C@@]23CC[C@](C)(C(=O)O2)C3(C)C)[C@H]1OC(=O)C12CCC(C)(C(=O)O1)C2(C)C	137000
CC(=O)O[C@@H]1C(OCC(C)C)c2c(ccc3ccc(=O)oc23)OC1(C)C (single isomer, unassigned)	30.6

Target: Human immunodeficiency virus type 1 reverse transcriptase (Human immunodeficiency virus 1, UniProt Q72547)
Test: Inhibition of HIV1 reverse transcriptase
Details: not given

SMILES	pIC50
CCCc1cc(=O)oc2c3c(c4c(c12)OC(C)(C)C=C4)O[C@H](C)[C@@H](C)[C@@H]3O [CALANOLIDE A]	4.70
Cc1cc(=O)oc2c3c(c4c(c12)OC(C)(C)C=C4)O[C@H](C)[C@@H](C)[C@@H]3O [(+)-CORDATOLIDE A]	4.91
CCCc1cc(=O)oc2c3c(c4c(c12)OC(C)(C)C=C4)O[C@H](C)[C@@H](C)[C@H]3O [(+)-CALANOLIDE B]	4.82
Cc1cc(=O)oc2c3c(c4c(c12)OC(C)(C)C=C4)O[C@H](C)[C@@H](C)[C@H]3O	4.72
CCCc1cc(=O)oc2c3c(c4c(c12)OC(C)(C)C=C4)O[C@H](C)[C@H](C)[C@@H]3O [CALANOLIDE C]	4.52
CCCc1cc(=O)oc2c3c(c4c(c12)OC(C)(C)C=C4)O[C@H](C)[C@@H](C)C3=O	4.72

Test system: Human immunodeficiency virus 1
Test: Antiviral activity against HIV-1 infected in CEM-SS cells
Assay type: functional, organism-based
Details: Human immunodeficiency virus 1, CEM-SS

SMILES	pEC50
CCCc1cc(=O)oc2c3c(c4c(c12)OC(C)(C)C=C4)O[C@H](C)[C@@H](C)[C@@H]3O [CALANOLIDE A]	7.00
CCCc1cc(=O)oc2c3c(c4c(c12)OC(C)(C)C=C4)O[C@H](C)[C@@H](C)[C@H]3O [(+)-CALANOLIDE B]	6.40
CCCc1cc(=O)oc2c3c(c4c(c12)OC(C)(C)C=C4)O[C@H](C)[C@@H](C)C3=O	5.92

Test system: Human immunodeficiency virus 1
Test: Antiviral activity against HIV-1 infected in human Jurkat cells
Assay type: functional, organism-based
Details: Human immunodeficiency virus 1, Jurkat

SMILES	pIC50
CC(C)=CCc1c(O)c(C(=O)C(C)C)c(O)c2c(-c3ccccc3)cc(=O)oc12 [MESUOL]	5.70
CC(C)=CCc1c(O)c(C(=O)C(C)C)c2oc(=O)cc(-c3ccccc3)c2c1O [ISOMESUOL]	5.70

Test system: Human immunodeficiency virus
Test: Antiviral activity against HIV infected in human H9 cells
Assay type: functional, organism-based
Details: Human immunodeficiency virus 1, H9; read-out: EC50

SMILES	EC50 [µg/mL]
CC(C)(O)C(O)COc1c2occc2cc2ccc(=O)oc12 (stereo unspecified)	0.115 (≈ 0.378 µM)
CC1(C)OC1COc1c2ccoc2cc2oc(=O)ccc12 (stereo unspecified)	1 (≈ 3.49 µM)
COC(C)(C)C(O)COc1c2ccoc2cc2oc(=O)ccc12 (stereo unspecified)	33 (≈ 104 µM)
CC(C)(Cl)C(O)COc1c2occc2cc2ccc(=O)oc12 (stereo unspecified)	2.25 (≈ 6.97 µM)
CC(C)(O)C(O)COc1c2ccoc2cc2oc(=O)ccc12 (stereo unspecified)	10 (≈ 32.9 µM)
COc1c2ccoc2cc2oc(=O)ccc12 [BERGAPTEN]	0.354 (≈ 1.64 µM)
O=c1ccc2cc3ccoc3cc2o1 [PSORALEN]	0.1 (≈ 0.537 µM)
CC1(C)OC1COc1c2occc2cc2ccc(=O)oc12 (stereo unspecified)	2.37 (≈ 8.28 µM)

Same assay, conditions: Human immunodeficiency virus 1, H9; read-out: ED50 (the source's name)

SMILES	EC50 [µg/mL]
O=c1ccc2cc(O)c(O)cc2o1 [ESCULETIN]	2.51 (≈ 14.1 µM)

Test system: Human alphaherpesvirus 1
Test: Antiviral activity against Herpes simplex virus 1
Assay type: functional, organism-based
Details: not given

SMILES	MIC [µg/mL]
COc1ccc(C2OC(COc3cc(=O)oc4ccccc34)=NN2C(C)=O)cc1 (stereo unspecified)	130 (≈ 330 µM)
COc1ccc(/C=N\NC(=O)COc2cc(=O)oc3ccccc23)cc1	200 (≈ 568 µM)

Test system: Hepatitis C virus
Test: Antiviral activity against HCV assessed as inhibition of RNA replication
Assay type: functional, organism-based, Hepacivirus hominis
Details: not given

SMILES	pEC50
O=c1oc2ccc(Br)cc2cc1CSc1nc2cc(F)ccc2[nH]1	5.47

Test system: not listed separately
Test: Inhibition of Hepatitis C virus NS5B polymerase
Design: species or system Hepacivirus hominis
Details: not given

SMILES	pIC50
COc1cc2c(cc1O)oc(=O)c1c3cc(O)c(O)cc3oc21	4.73
COc1cc2oc(=O)c3c4cc(OC)c(O)cc4oc3c2cc1O	3.51
O=c1oc2cc(O)c(O)cc2c2oc3cc4c(cc3c12)OCO4	4.20
COc1cc2c(cc1O)oc1c3ccc(O)cc3oc(=O)c21	3.76
COc1cc(O)c2c(c1)oc(=O)c1c3cc(O)c(O)cc3oc21 [WEDELOLACTONE]	4.44
